# Where a name gives a salt, the structure may show the parent alone. Read-outs that look alike come from different tables or passages of the source.
# Key:
# [1] = biological target: MCL-1 (Homo sapiens (Human), UniProt Q07820, K194A/K197A/R201A); test: Protein-protein interaction assay MCL-1/Noxa BH3 peptide (MCL-1 assay, TR-FRET); assay type: binding; conditions: MBP-MCL-1 / Noxa BH3 peptide, median
# Description: Protein-Protein Interaction Assay: MCL-1/Noxa BH3 Peptide (MCL-1 Assay)
# The dose-dependent inhibition by the compounds described in this invention of the interaction between MCL-1 and the BH3 domain of Noxa (both human) was determined using a steady state binding competition assay with time-resolved fluorescence energy transfer (TR-FRET) readout. For that purpose MCL-1 (amino acids 173-329, N-terminal fused to Maltose Binding Protein (MBP) SEQ ID 1) and a synthetic Noxa BH3-derived peptide of sequence Biotin-PEG2-PEG2-PAELEVE-Nva-ATQLRRFGDKLNFRQKLL-amide (SEQ ID 2) served as protein receptor and tracer ligand respectively. The MBP-MCL-1 was purchased from Beryllium (Bedford, Mass., USA). The expression and purification of this protein construct has been described elsewhere (DOI:10.1371/journal.pone.0125010). The Noxa BH3-derived peptide can be obtained from e.g. Biosyntan (Berlin, Germany).
# In the assay 11 different concentrations of each compound (0.1 nM, 0.33 nM, 1.1 nM, 3.8 nM, 13 nM, 44 nM, 0.15 μM, 0.51 μM, 1.7 μM, 5.9 μM and 20 μM) were typically measured as duplicates in the same microtiter plate. For that, 100-fold concentrated DMSO solutions were prepared by serial dilutions (1:3.4) of a 2 mM stock solution in a clear, 384-well microtiter plate (Greiner Bio-One, Frickenhausen, Germany). From there, 50 nl were transferred in a dark test plate (Greiner Bio-One, Frickenhausen, Germany). The assay was initiated by addition of 2 μl of a 2.5-fold concentrated MBP-MCL-1 solution (usually for a 1 nM end concentration in 5 μl reaction volume) in aqueous assay buffer [50 mM Tris/HCl pH 7, 100 mM sodium chloride (NaCl), 50 mM potassium fluoride (KF), 0.005% Tween-20, 2 mM DTT, 0.1% bovine gamma globulin (BGG)] to the compounds in the assay plate. This was followed by a 10-minute incubation step at 22° C. for pre-equilibration of the putative complex between MBP-MCL-1 and the compounds. After that, 3 μl of a 1.67-fold concentrated solution (in assay buffer) consisting of Noxa BH3-derived peptide (1 nM end concentration) and TR-FRET detection reagents [1.67 nM anti-MBP-Eu cryptate and 1.67 nM streptavidin-XL665 (both from Cisbio Bioassays, Codolet, France)], were added.
# The mixture was incubated in the dark for one hour at 22° C. and then overnight at 4° C. The formation of MCL-1/Noxa complexes was determined by measuring the resonance energy transfer of the anti-MBP-Eu-cryptate antibody to the streptavidin-XL665 present in the reaction. For that purpose, the fluorescence emission at 620 nm and 665 nm after excitation at 330-350 nm was measured in a TR-FRET measuring instrument, for instance a Rubystar or a Pherastar (both from BMG Lab Technologies, Offenburg, Germany) or a Viewlux (Perkin-Elmer). The ratio of the emission at 665 nm and at 622 nm was used as indicator of the amount of MCL-1/NOXA complexes present.
# The resulting data (ratio) were normalized, taking 0% inhibition as the mean value of control measurements (usually 32 data points) where all reagents were included. In this case 50 nl DMSO were used instead of compounds. A 100% inhibition corresponded to the mean value of control measurements (usually 32 data points) where all reagents except MCL-1 were included. IC50 values were determined by regression analysis based on a 4 parameter equation (minimum, maximum, IC50, Hill; Y=Max+(Min−Max)/(1+(X/IC50)^HiII) using the Screener Software (Genedata).
# [2] = system: SUDHL5; test: Induction of caspase-3/7 activity (Assay 4), SUDHL5; assay type: cell-based; conditions: caspase-3/7 induction, median
# Description: (§1) Cellular Assays Assay 4 Induction of Caspase-3/7 Activity Upon Treatment of Cells with Selected Compounds
# (§2) The BH3-domain of MCL-1 sequesters pro-apoptotic proteins, thereby inhibiting apoptosis. In contrast, MCL-1 inhibitors are expected to antagonize this effect leading to an increase in apoptosis, which can be determined by measuring the activity of caspase-3/7.
# (§3) The activity of caspase-3/7 was determined in DLBCL (Diffuse large B-cell lymphoma) cell lines (SUDHL5 and SUDHL10) upon treatment with different compounds, using the Caspase-Glo® 3/7 reagent from Promega (G8092).
# (§4) Rim wells were excluded. The cells were incubated for 3 hours in a humidified incubator at 37° C.
# (§5) For the evaluation of the results, the background measured with “medium-only” was subtracted from all other values. […] The Bella DRC Master Sheet was used to calculate EC50s, with fixed C0=1 and CI=plateau/max induction for the reference compound.
# [3] = system: SUDHL10; test: Induction of caspase-3/7 activity (Assay 4), SUDHL10; assay type: cell-based; conditions: caspase-3/7 induction, median
# Description: as §1, §2, §3, §4, §5
# [4] = system: SUDHL5; test: Antiproliferation assay (Assay 7), SUDHL5; assay type: cell-based; conditions: CellTiter-Glo, median, read-out: Antiproli SUDHL5 [M] (median) IC50
# Description: (§6) Assessment of the Anti-Proliferative Effect of Compounds in Different Cell Lines
# (§7) The impact of compounds on the proliferation of different cell lines was assessed using the CellTiter-Glo® Luminescent Cell Viability reagent from Promega (G7573).
# (§8) In parallel, cells were plated in a reference (day 0) plate for time zero determination.
# (§9) Rim wells were excluded. The cells were incubated for 72 hours in a humidified incubator at 37° C. The day 0 plate was measured by adding 30 μL/well of CTG solution (CellTiter-Glo® Luminescent Cell Viability reagent, Promega G7573) to time zero wells in the reference plate followed by a 10 minutes incubation and luminescence reading at 0.1 ms. using the PHERAstar FS microplate reader (BMG Labtech).
# (§10) After 72 hours incubation, the treated plates were measured in the same way as the day 0 plate mentioned above.
# [5] = system: MV-4-11; test: Antiproliferation assay (Assay 7), MV-4-11; assay type: cell-based; conditions: CellTiter-Glo, several values per example
# Description: as §6, §7, §8, §9, §10
# [6] = system: A2780; test: Antiproliferation assay (Assay 7), A2780; assay type: cell-based; conditions: CellTiter-Glo, several values per example
# Description: as §6, §7, §8, §9, §10
# [7] = system: SUDHL5; test: Induction of cytotoxicity (Assay 6), SUDHL5; conditions: read-out: Cytotox SUDHL5 [M] (median) IC50, CellTiter-Glo, 5 hours, SUDHL5
# Description: (§11) Assay 6 Induction of Cytotoxicity Upon Treatment of Cells with Selected Compounds
# (§12) Therefore, cytotoxicity assays were run in parallel in SUDHL5 and SUDHL10 cells.
# (§13) The different cell lines were plated in culture medium (RPMI 1640 [GIBCO #22400-089] supplemented with 10% Fetal Bovine Serum) at a density of 3,300 cells in 30 μl/well in a sterile, solid black, flat bottom, polystyrene, TC-treated 384-well microplate (Corning #3571) using Multidrop Combi Reagent Dispenser. As a control, medium without cells was also added to the plate. Cells were incubated in a humidified incubator at 37° C. overnight. On the next day, the cells were treated with compounds (stock solution, 10 mM in DMSO) using the HP D300 Digital Dispenser in a concentration range of 3.3×10e-5 M (33 μM) to 5×10e-9 M (5 nM) in a single-dot curve with at least 16 dilutions and a DMSO concentration of 0.33%. Rim wells were excluded. The cells were incubated for 5 hours in a humidified incubator at 37° C. After this incubation, 30 μl of CellTiter-Glo® Luminescent Cell Viability reagent (Promega, G7573) was added to each well using the Multidrop Combi Reagent Dispenser, followed by 15 minutes incubation on a shaker at room temperature. Finally, luminescence was read at 0.1 ms, with a gain of 3000 using the PHERAstar FS microplate reader (BMG Labtech).
# [8] = system: SUDHL10; test: Induction of cytotoxicity (Assay 6), SUDHL10; conditions: read-out: Cytotox SUDHL10 [M] (median) IC50, CellTiter-Glo, 5 hours, SUDHL10
# [9] = system: SUDHL5
# Description: as §11, §12, §13
# [10] = system: SUDHL10
# [11] = amine bond, 60.0 °C
# [12] = system: AMO-1; test: Antiproliferation assay (Assay 7), AMO-1; assay type: cell-based; conditions: CellTiter-Glo, 72 hours, several values per example, read-out: Antiproli AMO-1 [M] IC50
# Description: as §6, §7, §8, §9, §10
# [13] = system: HMC-1-8; test: Antiproliferation assay (Assay 7), HMC-1-8; assay type: cell-based; conditions: CellTiter-Glo, 72 hours, several values per example, read-out: Antiproli HMC-1-8 [M] IC50
# Description: as §6, §7, §8, §9, §10
# [14] = Homo sapiens, MV4-11, 72 h, read-out: Antiproli MV-4-11 [M] IC50
# [15] = Homo sapiens, A2780, 72 h, read-out: Antiproli A2780 [M] IC50
# Sequence of MCL-1 (Q07820 whole entry K194A/K197A/R201A, looked up): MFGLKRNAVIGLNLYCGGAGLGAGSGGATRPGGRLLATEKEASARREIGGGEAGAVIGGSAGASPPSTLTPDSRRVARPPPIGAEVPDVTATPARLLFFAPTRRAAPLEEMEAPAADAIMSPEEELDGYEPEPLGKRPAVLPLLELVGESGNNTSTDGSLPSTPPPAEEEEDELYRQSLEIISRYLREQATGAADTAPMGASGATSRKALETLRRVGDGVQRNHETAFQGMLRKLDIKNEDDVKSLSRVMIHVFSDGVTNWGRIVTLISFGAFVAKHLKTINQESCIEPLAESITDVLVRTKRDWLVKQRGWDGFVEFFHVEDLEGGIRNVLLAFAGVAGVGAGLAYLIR
smiles,measurement,setting,value
"Cc1c2c(nn1C)CN(C)S(=O)(=O)CCCC1C(C(=O)O)=C(CCCOc3cccc4ccccc34)c3cccc-2c31 (racemic) [Example 10, (rac)-2,3,14-Trimethyl-7-[3-(1-naphthyloxy)propyl]-11,12,14,15-tetrahydro-2H,10H-pyrazolo[3′,4′:4,5][1,2,8]thiadiazacycloundecino[6,7,8-hi]indole-8-carboxylic acid 13,13-dioxide]",IC50,[1],0.0074 µM
same,EC50,"[2]; Homo sapiens, SU-DHL-5, 3 h",3.1 µM
same,EC50,"[3]; Homo sapiens, SU-DHL10, 3 h",14 µM
same,IC50,"[4]; Homo sapiens, SU-DHL-5, 72 h",3.8e-06 M
same,IC50,"[5]; 72 hours, read-out: Antiproli MV-4-11 [M] IC50",1.28e-05 M
same,IC50,[5]; [14],1.54e-05 M
same,IC50,"[6]; 72 hours, read-out: Antiproli A2780 [M] IC50",> 3.3e-05 M
same,IC50,[6]; [15],1.68e-05 M
same,IC50,"[7]; Homo sapiens, SU-DHL-5, 5 h",3.8e-06 M
same,IC50,"[8]; Homo sapiens, SU-DHL10, 5 h",1.2e-05 M
"CCc1c2c(nn1C)C(CCN1CCOCC1)N(C)S(=O)(=O)CCCn1c(C(=O)O)c(CCCOc3cccc4cc(F)ccc34)c3ccc(Cl)c-2c31 (single isomer, unassigned) [Example 72, 4-chloro-3-ethyl-7-{3-[(6-fluoronaphthalen-1-yl)oxy]propyl}-2,14-dimethyl-15-[2-(morpholin-4-yl)ethyl]-13,13-dioxo-10,11,12,13,14,15-hexahydro-2H-13lambda6-pyrazolo[3′,4′:4,5][1,2,8]thiadiazacycloundecino[6,7,8-hi]indole-8-carboxylic acid (Mixture of Stereoisomers)]",IC50,[1],0.0011 µM
same,EC50,[2]; 3 hours,0.015 µM
same,EC50,[3]; 3 hours,0.027 µM
same,IC50,[9],0.0087 µM
same,IC50,[10],0.034 µM
"Cc1c2c(nn1C)CN(CCN1CCOCC1)S(=O)(=O)CCCn1c(C(=O)O)c(CCCOc3cccc4ccccc34)c3cccc-2c31 (single isomer, unassigned; enantiomer 1) [Example 2, 2,3-Dimethyl-14-[2-(morpholin-4-yl)ethyl]-7-{3-[(naphthalen-1-yl)oxy]propyl}-13,13-dioxo-10,11,12,13,14,15-hexahydro-2H-13λ^6-pyrazolo[3′,4′:4,5][1,2,8]thiadiazacycloundecino-[6,7,8-hi]indole-8-carboxylic acid-N-ethylethanamine salt (Enantiomer 1)]",IC50,[1],0.0034 µM
same,EC50,[2]; 3 hours,3.9 µM
same,EC50,[3]; 3 hours,11 µM
same,IC50,[4]; 72 hours,4.4e-06 M
same,IC50,"[5]; 72 hours, listed as 02, read-out: Antiproli MV-4-11 [M] IC50",8.63e-06 M
same,IC50,[5]; [14],1.17e-05 M
same,IC50,"[6]; 72 hours, listed as 02, read-out: Antiproli A2780 [M] IC50",> 3.3e-05 M
same,IC50,[6]; [15],2.66e-05 M
same,IC50,[7],3.5e-06 M
same,IC50,[8],9.8e-06 M
CCOC(=O)c1c(CCCOc2cccc3cc(F)ccc23)c2ccc(Cl)c3c2n1CCCS(=O)(=O)N(CC)Cc1nn(C)c(CC)c1-3,"ring closure, yield of all isomers","[11]; from CCOC(=O)c1[nH]c2c(-c3c(CN(CC)S(=O)(=O)CCCCl)nn(C)c3CC)c(Cl)ccc2c1CCCOc1cccc2cc(F)ccc12, cesium carbonate, acetonitrile, 50.9 mM, 48.0 h",73%
CCOC(=O)c1c(CCCOc2cccc3cc(F)ccc23)c2ccc(Cl)c3c2n1CCCS(=O)(=O)N(C)C(CCN1CCOCC1)c1nn(C)c(C)c1-3 (stereo not drawn),"ring closure, yield of all isomers","[11]; from CCOC(=O)c1[nH]c2c(-c3c(C(CCN4CCOCC4)N(C)S(=O)(=O)CCCCl)nn(C)c3C)c(Cl)ccc2c1CCCOc1cccc2cc(F)ccc12, cesium carbonate, acetonitrile, 37.4 mM, 48.0 h",82%
"CCc1c2c(nn1C)C(CCN1CCOCC1)N(C)S(=O)(=O)CCCn1c(C(=O)O)c(CCCOc3cccc4cc(F)ccc34)c3ccc(Cl)c-2c31 (racemic) [Example 74, (rac) 4-chloro-3-ethyl-7-{3-[(6-fluoronaphthalen-1-yl)oxy]propyl}-2,14-dimethyl-15-[2-(morpholin-4-yl)ethyl]-13,13-dioxo-10,11,12,13,14,15-hexahydro-2H-13lambda6-pyrazolo[3′,4′:4,5][1,2,8]thiadiazacycloundecino[6,7,8-hi]indole-8-carboxylic acid (Racemate 2)]",IC50,[1],0.0011 µM
same,EC50,[2]; 3 hours,0.011 µM
same,EC50,[3]; 3 hours,0.014 µM
same,IC50,[4]; 72 hours,9.9e-09 M
same,IC50,[12],3.9e-08 M
same,IC50,[13],3.2e-07 M
same,IC50,[9],0.013 µM
same,IC50,[10],0.017 µM
CCOC(=O)c1c(CCCOc2cccc3ccccc23)c2cccc3c2n1CCCS(=O)(=O)N(CCCN1CCCC1=O)Cc1nn(C)c(CC)c1-3,"ring closure, yield of all isomers","[11]; from CCOC(=O)c1[nH]c2c(-c3c(CN(CCCN4CCCC4=O)S(=O)(=O)CCCCl)nn(C)c3CC)cccc2c1CCCOc1cccc2ccccc12, NaH, DMF, 25.1 mM, 22.0 h",80.5%

# Reference: patent US11401278B2, “Macrocyclic indole derivatives” (The Broad Institute, Inc., priority 2017, dated 2022)
